Data published in patent US20080317700A1 (priority 2006, published 2008).

Experiments:
green algae CD 1 Red [1] = test: Liquid culture growth inhibition (optical density), green algae; type: cell-based; settings: CD1 Red, BG-11 liquid medium, 1 mM herbicide, control 0.55
Description: (§1) Strains of green algae, cyanobacteria and E. Coli were used as test organisms. The green algae CD 1 Red and cyanobacteria Synechocystos 6803 were obtained from the collection of Prof. George Bullerjahn. Salt water strain of cyanobacteria Synechococcus 7002 was obtained from the collection of Prof. Michael McKay. E Coli DH 5α was obtained from Invitrogen Inc.
Green algae and cyanobacteria were propagated photoautotrophically in 250 mL Erlenmeyer flasks containing 100 mL of liquid BG-11 culture medium (see Supporting Information). The cultures were kept on a rotating shaker (100 rpm) at 25° C. for 4 days and continuously illuminated with cool-white fluorescent light with a constant light intensity of 5000 lux. The grown culture medium was sterilized in an autoclave at 121° C. and 1.05 kg cm^−2 pressure for 20 min. For the cell experiments, 20 mL aliquots of the BG-11 medium containing the green algal ([cells]initial=5.9×10^7 mL^−1) or cyanobacteria cells ([cells]initial=1.7×10^9 mL^−1) were placed in sterile 50 mL Erlenmeyer flasks. […] Cell counts were correlated with the absorbance and measured as a function of time using a Spectronic 20 Genesis spectrophotometer. […] In each experiment, the inhibition of cell growth in treated cultures was monitored spectrophotometrically and compared to the growth in control samples.

[2] = tested on: cyanobacteria Synechococcus 7002; test: Liquid culture growth inhibition (optical density), salt water cyanobacteria; type: cell-based; settings: Synechococcus 7002, BG-11 liquid medium, 1 mM herbicide, 7 days; control 0.72
Description: as §1
Green algae and cyanobacteria were propagated photoautotrophically in 250 mL Erlenmeyer flasks containing 100 mL of liquid BG-11 culture medium (see Supporting Information). The cultures were kept on a rotating shaker (100 rpm) at 25° C. for 4 days and continuously illuminated with cool-white fluorescent light with a constant light intensity of 5000 lux. The grown culture medium was sterilized in an autoclave at 121° C. and 1.05 kg cm^−2 pressure for 20 min. For the cell experiments, 20 mL aliquots of the BG-11 medium containing the green algal ([cells]initial=5.9×10^7 mL^−1) or cyanobacteria cells ([cells]initial=1.7×10^9 mL^−1) were placed in sterile 50 mL Erlenmeyer flasks. CD 1 Red, Synechocystos 6803 and Synechococcus 7002 were then treated with an aliquot of a stock herbicide solution to bring the final herbicide concentration to 1 mM and incubated for 7 days on a rotator shaker (100 rpm) at 25° C. and continuous light intensity of 5000 lux. Cell counts were correlated with the absorbance and measured as a function of time using a Spectronic 20 Genesis spectrophotometer. As previously reported by Ma et al., 5 the optimal wavelength for monitoring culture growth is 680 nm. Experiments for each herbicide were repeated three times. Control and treated cultures were grown under the same conditions of temperature, photoperiod, and agitation. In each experiment, the inhibition of cell growth in treated cultures was monitored spectrophotometrically and compared to the growth in control samples.

E. Coli = E. Coli agar experiments (colony count); type: cell-based; settings: M9 agar, 1 mM herbicide, 37° C., 24 hours; controls 36 colonies
Description: A M9 minimum medium containing 1.5 wt. % agar was prepared and sterilized at 121° C., 1.05 kg cm^−2 for 20 min. An aliquot of each tested herbicide solution was added to portions of the autoclaved agar to give a 1 mM final concentration of the herbicide. Twenty mL of the liquid agar was poured into a standard Petri dish and allowed to harden at room temperature. E. Coli cell suspensions were inoculated using a sterile inoculation loop and stored at 37° C. for 24 hours. Control and treated cultures were grown under the same conditions. In each experiment, the inhibition of growth in treated cultures was monitored relative to growth in control samples by manually counting the number of colonies.

green algae CD 1 Red [3] = test: organism not typed; type: cell-based
Description: After phototrophical propagation during the 5 days under cool fluorescence light (intensity 5000 lux), the average radii of inhibition zones were measured. Water soaked filter paper circles were used as controls. Experiments for each herbicide concentration were repeated 3 times.

Navicula pelliculosa = test: Inhibition zones around polymer pellets, diatom Navicula; type: cell-based; settings: pellet without herbicide 10 ± 1
Description: Rectangular copolymer pellets (15×10×1.5 mm) were formed from a model acrylic resin (designated as 459S2) containing several epoxy acrylic oligomers (57%), acrylic monomeric diluents (43%) and a corresponding amount of herbicide. A designated quantity of herbicide was dispersed or partially dissolved in 459S2 resin using ultrasonication and heat (60° C., overnight). To each sample, 1.5% wt. of commercial photoinitiator (ITX), 5% of ODAB synergist and 0.1% co-photoinitiator (Irgacure 819) were added. Liquid formulations were poured into an open top Teflon mold and irradiated under N2 by a 395 nm LED light source for 5 min followed by pellet removal.
Two different diatom cultures, Phaeodactylum tricornutum and Navicula pelliculosa were used in the biological activity tests. […] Following propagation over 5 days under continuous cool fluorescent light (5000 lx), the average radii of inhibition zones were measured. Experiments for each herbicide concentration were repeated at least two times.

[4] = tested on: natural freshwater biofouling organisms (periphyton); test: Field trial: periphyton biofouling on coated tiles in artificial stream (chlorophyll extraction); settings: for Extracted chl (periphyton chl biomass) per tile: 459S2 coating with 0.15 M herbicide on ceramic tiles, 10 days in flow channels, bare tiles 11.1±2.87, blank resin 9.35±1.07
Description: Field tests were conducted during July and August, 2006 at the University of Michigan Biological Station Experimental Stream Laboratory located near Douglas Lake, Pellston, Mich. Resin 459S2 containing 0.15 M of a designated herbicide was coated on terracotta ceramic tiles (3×6 inches) pretreated with silanes for improved adhesion and photocured by an H-bulb system obtained from Fusion Inc. The coating thickness was 12.5 μm (0.5 mil). Bare tiles and tiles coated with 459S2 containing no additive were used as controls. Nine tiles for each series were placed into separate flow channels with a constant water flow of 3 L min^−1 for each channel. Each flow channel utilized water pumped from the East Branch of the Maple River containing natural freshwater biofouling organisms. Each flow channel was covered with a mesh screen to reduce direct light exposure and to ensure more favorable growth conditions. Tiles were left in the flow channels for 10 days.
Chlorophyll (chl) biomass attached to the surface of each tile was determined after the tiles had been washed three times with tap water to remove mud and other loosely attached species. The coated surface of the tile was submerged into a plastic vessel containing 25 mL of 90/10 acetone/saturated aqueous MgCl2. The container itself was placed into an ultrasonic bath and the entire system was sonicated for 30 seconds to facilitate chl extraction. The UV-vis spectrum of each extract was measured on a Shimadzu diode-array spectrophotometer using a 1 cm quartz cell. The amount of chl was determined using the following equation:^29
where Aλ1-λ2 is the difference in absorbance at two designated wavelengths and l is the spectroscopic cell pathlength. Two independent field trials were conducted.

Solubility (qualitative) = type: physicochemical
[5] = CD1 Red, herbicide concentration 0.3 mM, 5 days
[6] = CD1 Red, herbicide concentration 3 mM, 5 days
[7] = herbicide 0.15 M in 459S2 polymer pellet
[8] = herbicide 0.3 M in 459S2 polymer pellet

| Compound | Optical Density at 680 nm after 7 days of media growth (green algae CD 1 Red [1]) | Optical Density at 680 nm after 7 days of media growth [2] | Number of E. Coli colonies (E. Coli) [colonies] | zone of inhibition at 30000 µM (green algae CD 1 Red [3]; 120 h, CD1 Red, herbicide concentration 30 mM, 5 days, read-out: Average radii of the inhibition zones) [mm] | Average radii of the inhibition zones (green algae CD 1 Red [3]; [5]) | Average radii of the inhibition zones (green algae CD 1 Red [3]; [6]) | Average radii of the inhibition zones (green algae CD 1 Red [3]; CD1 Red, herbicide concentration 300 mM, 5 days) | Diameter of Inhibition Zone (Bleaching indicates no growth detected on 100 mm plate) (Navicula pelliculosa; [7]) [mm] | Diameter of Inhibition Zone (Bleaching indicates no growth detected on 100 mm plate) (Navicula pelliculosa; [8]) | Extracted chl (periphyton chl biomass) per tile [4] [μg tile^−1] | Solubility in organic solvents (Solubility (qualitative)) | zone of inhibition at 300000 µM (green algae CD 1 Red [3]; 120 h, read-out: Average radii of the inhibition zones) [mm] | Average radii of the inhibition zones (green algae CD 1 Red [3]; CD1 Red, herbicide concentration 30 mM, 5 days) | Periphyton chl relative to tiles containing unfunctionalized glyphosate ([4]; 459S2 coating with 0.15 M herbicide, 10 days, unpaired two-tailed t-test, P<0.05) | Solubility in water (Solubility (qualitative)) |
| --- | --- | --- | --- | --- | --- | --- | --- | --- | --- | --- | --- | --- | --- | --- | --- |
| O=C(O)CNCP(=O)(O)O [Glyphosate, N-(Phosphonomethyl)glycine, reference compound] | 0.02 | 0.04 | 11 | 7.5 | No | No | Complete | 22.5 ± 2 | Bleaching | 11.9±2.56 | poor solubility in organic solvents | – | – | – | – |
| C=CC(=O)N(CC(=O)O)CP(=O)(O)O [AA, N-Acryloyl-N-(phosphonomethyl)glycine] | 0.02 | 0.07 | 6 | – | No | No | – | 20 ± 2 | Bleaching | 7.92±1.12 | poorly soluble in most organic solvents | 10 | No | roughly one-third | soluble in water |
